From patent US20190127366A1 (LifeSci Pharmaceuticals, Inc., priority 2015, published 2019) come the findings set out here.

What is called IC50 is the concentration that inhibits the measured activity by half.

The target in the experiment is T1, human complement factor D (Homo sapiens, UniProt P00746).
T1 construct: purchased R&D Systems 1824-SE
T1 sequence (P00746 26-253): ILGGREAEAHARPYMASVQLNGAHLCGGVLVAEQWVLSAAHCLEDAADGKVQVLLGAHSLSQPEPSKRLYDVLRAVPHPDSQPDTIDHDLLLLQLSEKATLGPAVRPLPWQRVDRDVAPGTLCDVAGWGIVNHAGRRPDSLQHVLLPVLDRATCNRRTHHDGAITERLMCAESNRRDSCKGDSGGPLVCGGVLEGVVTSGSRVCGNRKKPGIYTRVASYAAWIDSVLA
In words: In vitro enzyme inhibition (Z-Lys-SBzl/DTNB absorbance assay). The following applies: Complement Factor D (R&D Systems), substrate Z-Lys-SBzl, A405 nm; read-out: CFD IC50. Format: biochemical. As for the experimental part:
The ability of the compounds disclosed herein to inhibit human complement factor D inhibitory activity was quantified according to the 12-step protocol provided below. • 1. Prepare assay buffer: 50 mM Tris/HCl, pH 7.5, 1 M NaCl. • 2. Dilute 10 mM Complement Factor D inhibitor Nafamostat Mesilate (Selleckchem, Catalog #S1386) solution from 10000 μM to 9.77 μM in 100% DMSO, 8 concentrations. Then dilute the serial concentrations of Nafamostat Mesilate 20-fold in assay buffer. • 3. Add 10 μl diluted Nafamostat Mesilate duplicated into each of the inhibitor control well of a 96-well plate (Corning, Catalog #3599). Final concentrations were 50 μM, 25 μM, 12.5 μM, 6.25 μM, 3.125 μM, 0.781 μM, 0.195 μM and 0.049 μM. 0.5% DMSO was in each well finally. • 4. Dilute 20 mM test compounds from 10000 μM to […] in 100% DMSO, 6-fold dilution, 8 concentrations. Then dilute the serial concentrations of test compounds 20-fold in assay buffer. • 5. Add 10 μl diluted test compounds duplicated into the 96-well plate. Final concentrations were 50 μM, 8.33 μM, 1.39 μM, 0.23 μM, 0.0386 μM, 0.0064 μM, 0.0011 μM and 0.0002 μM. 0.5% DMSO was in each well finally. • 6. Dilute 20 mM substrate Z-Lys-SBzl (Bachem, Cat #M-1300) to 200 μM in assay buffer with 200 μM DTNB(Sigma, Catalog #D8130). • 7. Dilute 738 ng/μL Complement Factor D (R&D Systems, Catalog #1824-SE) to 6.25 ng/μL in assay buffer. Add 40 μl diluted Complement Factor D in the 96-well plate. • 8. Positive control well contains Complement Factor D without test compound. Negative control well contains neither Complement Factor D nor test compound. Using assay buffer, bring the total volume of all controls to 50 μl. • 9. Pre-incubate the plate for 5 min at room temperature. • 10. Add 50 μl of diluted substrate/DTNB mixture into each well. Mix the reagents completely by shaking the plate gently for 30 sec. • 11. For kinetic reading: Immediately start measuring absorbance (A405 nm) continuously and record data every 30sec for 60 min. • 12. Data analysis • Inhibition activity of compound was evaluated by IC50. IC50 was calculated according the dose-response curve of compound fitted using GraphPadPrism with “log(inhibitor)-response (variable slope)” equation. • % inhibition was calculated by using following equation:
[formula] • Mean(NC): The average value of the negative control wells' A405 nm values. • Mean(PC): The average value of the positive control wells' A405 nm values.
The ability of the compounds in Table 2 to inhibit human complement factor D inhibitory activity was determined.
On to `COC(=O)c1ccc(Cl)c(F)c1CNC(=O)[C@@H]1[C@H]2CC[C@H](C2)N1C(=O)Cn1nc(C(N)=O)c2ccccc21` [Example 116, methyl 2-(((1R,3S,4S)-2-(2-(3-carbamoyl-1H-indazol-1-yl)acetyl)-2-azabicyclo[2.2.1]heptane-3-carboxamido)methyl)-4-chloro-3-fluorobenzoate], for which the IC50 lay in the range of 1 to 10 µM.

For `COC(=O)c1cc(Cl)c(F)c(CNC(=O)[C@@H]2[C@H]3CC[C@H](C3)N2C(=O)Cn2nc(C(N)=O)c3ccccc32)c1` [Example 110, methyl 3-(((1R,3S,4S)-2-(2-(3-carbamoyl-1H-indazol-1-yl)acetyl)-2-azabicyclo[2.2.1]heptane-3-carboxamido)methyl)-5-chloro-4-fluorobenzoate], the IC50 fell in the range of 1 to 10 µM.

As to `NC(=O)c1nn(CC(=O)N2[C@H]3CC[C@H](CC3)[C@@H]2C(=O)Nc2cccc(Cl)c2F)c2ccccc12` [Example 149, (1S,3R,4S)-2-(2-(3-carbamoyl-1H-indazol-1-yl)acetyl)-N-(3-chloro-2-fluorophenyl)-2-azabicyclo[2.2,2]octane-3-carboxamide], the IC50 is more than 10 µM.

Take `NC(=O)c1nn(CC(=O)N2[C@@H]3CC[C@@H](C3)[C@H]2C(=O)Nc2cccc(C(F)(F)F)n2)c2ccccc12` [Example 8, 1-(2-oxo-2-((1R,3S,4S)-3-((6-(trifluoromethyl)pyridin-2-yl)carbamoyl)-2-azabicyclo[2.2.1]heptan-2-yl)ethyl)-1H-indazole-3-carboxamide]: the IC50 lay within 1 to 10 µM.

For the compound `Cc1cccc(NC(=O)[C@@H]2[C@H]3CC[C@H](C3)N2C(=O)Cn2nc(C(N)=O)c3ccccc32)n1` [Example 6, 1-(2-((1R,3S,4S)-3-((6-methylpyridin-2-yl)carbamoyl)-2-azabicyclo[2.2.1]heptan-2-yl)-2-oxoethyl)-1H-indazole-3-carboxamide], the IC50 lay within 1 to 10 µM.

With `NC(=O)c1nn(CC(=O)N2[C@@H]3CC[C@@H](C3)[C@H]2C(=O)Nc2cccc(-c3ccccc3Cl)n2)c2ccccc12` [Example 44, 1-(2-((1R,3S,4S)-3-((6-(2-chlorophenyl)pyridin-2-yl)carbamoyl)-2-azabicyclo[2.2.1]heptan-2-yl)-2-oxoethyl)-1H-indazole-3-carboxamide], the IC50 lay within 0.1 to 1 µM.

Turning to `NC(=O)c1nn(CC(=O)N2[C@@H]3CC[C@@H](C3)[C@H]2C(=O)Nc2cccc(C(F)(F)F)n2)c2cnccc12` [Example 9, 1-(2-oxo-2-((1R,3S,4S)-3-((6-(trifluoromethyl)pyridin-2-yl)carbamoyl)-2-azabicyclo[2.2.1]heptan-2-yl)ethyl)-1H-pyrazolo[3,4-c]pyridine-3-carboxamide], the IC50 is 0.1 to 1 µM.

For `NC(=O)c1nn(CC(=O)N2[C@@H]3CC[C@@H](C3)[C@H]2C(=O)Nc2ccc(Cl)c(Cl)n2)c2ccccc12` [Example 76, 1-(2-((1R,3S,4S)-3-((5,6-dichloropyridin-2-yl)carbamoyl)-2-azabicyclo[2.2.1]heptan-2-yl)-2-oxoethyl)-1H-indazole-3-carboxamide], the IC50 lay within 0.1 to 1 µM.

For `CC(=O)N1CCN(C(=O)Cn2nc(C(N)=O)c3ccccc32)[C@H](C(=O)Nc2cccc(Cl)n2)C1` [Example 27, (S)-1-(2-(4-acetyl-2-((6-chloropyridin-2-yl)carbamoyl)piperazin-1-yl)-2-oxoethyl)-1H-indazole-3-carboxamide], the IC50 was in the range of 1 to 10 µM.

Take `NC(=O)c1nn(CC(=O)N2[C@@H]3CC[C@@H](C3)[C@H]2C(=O)NCc2cccc(Cl)c2F)c2cnccc12` [Example 39, 1-(2-((1R,3S,4S)-3-((3-chloro-2-fluorobenzyl)carbamoyl)-2-azabicyclo[2.2.1]heptan-2-yl)-2-oxoethyl)-1H-pyrazolo[3,4-c]pyridine-3-carboxamide]: the IC50 lay in the range of 0.1 to 1 µM.

As for `NC(=O)c1nn(CC(=O)N2[C@H]3CC[C@H](CC3)[C@@H]2C(=O)Nc2cccc(Cl)n2)c2ccccc12` [Example 155, (1S,3R,4S)-2-(2-(3-carbamoyl-1H-indazol-1-yl)acetyl)-N-(6-chloropyridin-2-yl)-2-azabicyclo[2.2.2]octane-3-carboxamide], the IC50 lay in the range of 1 to 10 µM.

Regarding `NC(=O)c1nn(CC(=O)N2[C@H](CO)C[C@H]2C(=O)NCc2cccc(Cl)c2F)c2ccccc12` [Example 197, 1-(2-(trans-2-((3-chloro-2-fluorobenzyl)carbamoyl)-4-(hydroxymethyl)azetidin-1-yl)-2-oxoethyl)-1H-indazole-3-carboxamide], the half-maximal inhibitory concentration (IC50) lay within 1 to 10 µM.

For `NC(=O)Cc1ccc2c(C(N)=O)nn(CC(=O)N3[C@@H]4CC[C@@H](C4)[C@H]3C(=O)NCc3cccc(Cl)c3F)c2c1` [Example 128, 6-(2-amino-2-oxoethyl)-1-(2-((1R,3S,4S)-3-((3-chloro-2-fluorobenzyl)carbamoyl)-2-azabicyclo[2.2.1]heptan-2-yl)-2-oxoethyl)-1H-indazole-3-carboxamide], the IC50 is 1 to 10 µM.

Take `NC(=O)c1nn(CC(=O)N2[C@@H]3CC[C@@H](C3)[C@H]2C(=O)NCc2cccc(Cl)c2F)c2ccc(CC(=O)O)cc12` [Example 131]: the IC50 was 1 to 10 µM.

Take `CC(=O)c1nn(CC(=O)N2[C@H](C(=O)Nc3cccc(Cl)n3)C[C@@H]3CCC[C@@H]32)c2ccc(Cl)cc12` [Example 178, (2S,3aS,6aS)-1-(2-(3-acetyl-5-chloro-1H-indazol-1-yl)acetyl)-N-(6-chloropyridin-2-yl)octahydrocyclopenta[b]pyrrole-2-carboxamide]: the IC50 was in the range of 0.1 to 1 µM.

`Cc1ccc(NC(=O)[C@@H]2[C@H]3CC[C@H](C3)N2C(=O)Cn2nc(C(N)=O)c3ccccc32)nc1Cl` [Example 68, 1-(2-((1R,3S,4S)-3-((6-chloro-5-methylpyridin-2-yl)carbamoyl)-2-azabicyclo[2.2.1]heptan-2-yl)-2-oxoethyl)-1H-indazole-3-carboxamide 2,2,2-trifluoroacetate]: the IC50 was in the range of 0.1 to 1 µM.

For `NC(=O)c1nn(CC(=O)N2CCCNCC2C(=O)NCc2cccc(Cl)c2F)c2ccccc12` (stereo not shown) [Example 33, 1-(2-(2-((3-chloro-2-fluorobenzyl)carbamoyl)-1,4-diazepan-1-yl)-2-oxoethyl)-1H-indazole-3-carboxamide], the IC50 was more than 10 µM.

For `CC(=O)c1nn(CC(=O)N2[C@H](C(=O)Nc3cccc(Cl)n3)C[C@@H]3CCC[C@@H]32)c2ccc(C)cc12` [Example 176, (2S,3aS,6aS)-1-(2-(3-acetyl-5-methyl-1H-indazol-1-yl)acetyl)-N-(6-chloropyridin-2-yl)octahydrocyclopenta[b]pyrrole-2-carboxamide], the IC50 fell in the range of 0.1 to 1 µM.

Regarding `NC(=O)c1nn(CC(=O)N2[C@@H]3CC[C@@H](C3)[C@H]2C(=O)NC(CC(=O)O)c2cccc(Cl)c2F)c2ccccc12` (stereo partly drawn) [Example 143, 3-((1R,3S,4S)-2-(2-(3-carbamoyl-1H-indazol-1-yl)acetyl)-2-azabicyclo[2.2.1]heptane-3-carboxamido)-3-(3-chloro-2-fluorophenyl)propanoic acid], the IC50 is 1 to 10 µM.

For the compound `NC(=O)c1nn(CC(=O)N2[C@@H]3CC[C@@H](C3)[C@H]2C(=O)NC(CO)c2cccc(Cl)c2F)c2ccccc12` (stereo partly drawn) [Example 138, 1-(2-((1R,3S,4S)-3-((1-(3-chloro-2-fluorophenyl)-2-hydroxyethyl)carbamoyl)-2-azabicyclo[2.2.1]heptan-2-yl)-2-oxoethyl)-1H-indazole-3-carboxamide], the IC50 lay within 1 to 10 µM.

For `NC(=O)c1nn(CC(=O)N2C3CCC(C3)[C@H]2C(=O)Nc2cccc(C(F)(F)F)n2)c2ccccc12` (stereo partly drawn) [Example 13, 1-(2-oxo-2-((3S)-3-((6-(trifluoromethyl)pyridin-2-yl)carbamoyl)-2-azabicyclo[2.2.1]heptan-2-yl)ethyl)-1H-indazole-3-carboxamide], the IC50 was 1 to 10 µM.

`NC(=O)c1nn(CC(=O)N2[C@@H]3CC[C@@H](C3)[C@H]2C(=O)NCc2cc3c(Cl)c[nH]c3cc2F)c2ccccc12` [Example 198, 1-(2-((1R,3S,4S)-3-(((3-chloro-6-fluoro-1H-indol-5-yl)methyl)carbamoyl)-2-azabicyclo[2.2.1]heptan-2-yl)-2-oxoethyl)-1H-indazole-3-carboxamide]: the IC50 is more than 10 µM.
